# According to US20260176267A1, “PREPARATION OF IMIDAZOPYRIDINE AND IMIDAZOPYRIDAZINE DERIVATIVES AS NOVEL DIACYLGLYCERIDE O-ACYLTRANSFERASE 2 INHIBITORS” (Merck Sharp & Dohme LLC, priority 2022, published 2026):
# Biological target: T1, human DGAT2 (hDGAT2) (Homo sapiens, UniProt Q96PD7)
# T1 construct: made in house; host or cells: Sf-9 insect cells (baculovirus), membrane fraction
# T1 sequence (Q96PD7 1-388): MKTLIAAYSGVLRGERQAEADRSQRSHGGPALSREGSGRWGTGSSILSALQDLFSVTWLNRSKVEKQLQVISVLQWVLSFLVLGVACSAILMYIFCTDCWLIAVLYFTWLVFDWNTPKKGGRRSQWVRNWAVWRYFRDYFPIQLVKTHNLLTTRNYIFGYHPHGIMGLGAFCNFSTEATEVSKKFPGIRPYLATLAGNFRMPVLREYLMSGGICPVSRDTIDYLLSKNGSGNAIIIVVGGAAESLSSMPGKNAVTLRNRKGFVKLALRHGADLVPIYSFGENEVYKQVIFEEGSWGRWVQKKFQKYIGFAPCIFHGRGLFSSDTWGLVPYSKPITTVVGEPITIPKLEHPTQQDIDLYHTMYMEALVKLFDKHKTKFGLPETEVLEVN
# Test: DGAT2 Enzymatic Activity Assay
# Format: biochemical
# Conditions: membrane prep of Sf-9 cells expressing hDGAT2; 13C18-triolein product by LC/MS/MS; 25 μM diolein, 5 μM 13C oleoyl-CoA, rt
# In short: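 Membranes from Sf-9 cells expressing untagged human DGAT2 (baculovirus, 48 h) used as enzyme at rt. The product ^13C18-triolein is quantified by LC/MS/MS against a ^13C21-triolein internal standard. Percent inhibition is taken from high and low controls, and IC50 is derived.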
row,SMILES,IC50
1,"Cc1cc2nc(C(=O)NC3(C)CCS(=O)(=O)CC3)cn2cc1Oc1nccnc1OCC(F)(F)F [Example 20, 7-methyl-N-(4-methyl-1,1-dioxidotetrahydro-2H-thiopyran-4-yl)-6-((3-(2,2,2-trifluoroethoxy)pyrazin-2-yl)oxy)imidazo[1,2-a]pyridine-2-carboxamide]",0.0173 µM
2,"CC1(NC(=O)c2cn3cc(Oc4ncccc4OCC(F)(F)F)cc(F)c3n2)CCS(=O)(=O)CC1 [Example 7, 8-fluoro-N-(4-methyl-1,1-dioxo-thian-4-yl)-6-[[3-(2,2,2-trifluoroethoxy)-2-pyridyl]oxy]imidazo[1,2-a]pyridine-2-carboxamide]",0.0047 µM
3,"Cc1c(C(=O)NC2(C)CCS(=O)(=O)CC2)nc2ccc(Oc3ncc(F)cc3OCC(F)(F)C(F)F)cn12 [Example 104, 6-[[5-fluoro-3-(2,2,3,3-tetrafluoropropoxy)-2-pyridyl]oxy]-3-methyl-N-(4-methyl-1,1-dioxo-thian-4-yl)imidazo[1,2-a]pyridine-2-carboxamide]",0.342 µM
4,"Cc1cc2nc(C(=O)NC3(C)CCS(=O)(=O)CC3)cn2cc1Oc1ncc(Cl)cc1OCC1(F)CC1 [Example 10, 6-[[5-chloro-3-[(1-fluorocyclopropyl)methoxy]-2-pyridyl]oxy]-7-methyl-N-(4-methyl-1,1-dioxo-thian-4-yl)imidazo[1,2-a]pyridine-2-carboxamide]",0.013 µM
5,"Cc1c(C(=O)NC2(C)CCS(=O)(=O)CC2)nc2ccc(Oc3ncc(C4CC4)cc3OCC(F)(F)F)cn12 [Example 145, 6-[[5-cyclopropyl-3-(2,2,2-trifluoroethoxy)-2-pyridyl]oxy]-3-methyl-N-(4-methyl-1,1-dioxo-thian-4-yl)imidazo[1,2-a]pyridine-2-carboxamide]",0.133 µM
6,"Cc1c(C(=O)NC2(C)CCS(=O)(=O)CC2)nc2ccc(Oc3ncc(O)cc3OCC(F)(F)F)cn12 [Example 148, 6-[[5-hydroxy-3-(2,2,2-trifluoroethoxy)-2-pyridyl]oxy]-3-methyl-N-(4-methyl-1,1-dioxo-thian-4-yl)imidazo[1,2-a]pyridine-2-carboxamide]",0.08 µM
7,"CCOc1cccnc1Oc1ccc2nc(C(=O)NC3(C)CC(F)(F)C3)cn2c1 [Example 23, N-(3,3-difluoro-1-methyl-cyclobutyl)-6-[(3-ethoxy-2-pyridyl)oxy]imidazo[1,2-a]pyridine-2-carboxamide]",0.031 µM
8,"CC1(NC(=O)c2nc3ccc(Oc4ncccc4OCC(F)(F)F)cn3c2C(=O)O)CCS(=O)(=O)CC1 [Example 132, 2-((4-methyl-1,1-dioxidotetrahydro-2H-thiopyran-4-yl)carbamoyl)-6-((3-(2,2,2-trifluoroethoxy)pyridin-2-yl)oxy)imidazo[1,2-a]pyridine-3-carboxylic acid]",> 9.99 µM
9,"Cc1cnc(OCC(F)(F)F)c(Oc2ccc3nc(C(=O)NC4(C)CCS(=O)(=O)CC4)c(C)n3c2)n1 [Example 108, 3-methyl-N-(4-methyl-1,1-dioxo-thian-4-yl)-6-[6-methyl-3-(2,2,2-trifluoroethoxy)pyrazin-2-yl]oxy-imidazo[1,2-a]pyridine-2-carboxamide]",0.131 µM
10,"Cc1cc2nc(C(=O)NC3(C)CS(=O)(=O)C3)cn2nc1Oc1ncc(Cl)cc1OCC(F)F [Example 169, 6-[[5-chloro-3-(2,2-difluoroethoxy)-2-pyridyl]oxy]-7-methyl-N-(3-methyl-1,1-dioxo-thietan-3-yl)imidazo[1,2-b]pyridazine-2-carboxamide]",0.121 µM
11,"CS(=O)(=O)CC1(NC(=O)c2cn3nc(Oc4ncc(Cl)cc4OCC(F)F)ccc3n2)CCC1 [Example 163, 6-[[5-Chloro-3-(2,2-difluoroethoxy)-2-pyridyl]oxy]-N-[1-(methylsulfonylmethyl)cyclobutyl] imidazo[1,2-b]pyridazine-2-carboxamide]",0.207 µM
12,"Cc1cc2nc(C(=O)NC3(C)CCS(=O)(=O)CC3)cn2cc1Oc1ncc(Cl)cc1OCC1(F)COC1 [Example 41, 6-[[5-chloro-3-[(3-fluorooxetan-3-yl)methoxy]-2-pyridyl]oxy]-7-methyl-N-(4-methyl-1,1-dioxo-thian-4-yl)imidazo[1,2-a]pyridine-2-carboxamide]",0.074 µM
13,"Cc1cc(Oc2ncc(Cl)cc2OCC(F)F)nn2cc(C(=O)NC3(C)CS(=O)(=O)C3)nc12 [Example 172, 6-[[5-chloro-3-(2,2-difluoroethoxy)-2-pyridyl]oxy]-8-methyl-N-(3-methyl-1,1-dioxo-thietan-3-yl)imidazo[1,2-b]pyridazine-2-carboxamide]",0.03 µM
14,"CC1(NC(=O)c2nc3ccc(Oc4ncccc4OCC(F)(F)F)cn3c2O)CCS(=O)(=O)CC1 [Example 131, 3-hydroxy-N-(4-methyl-1,1-dioxo-thian-4-yl)-6-[[3-(2,2,2-trifluoroethoxy)-2-pyridyl]oxy]imidazo[1,2-a]pyridine-2-carboxamide]",0.034 µM
15,"Cc1c(C(=O)NC2(C)CCN(C(=O)C(F)(F)F)CC2)nc2ccc(Oc3ncc(F)cc3OCC(F)(F)F)cn12 [Example 102, 6-[[5-fluoro-3-(2,2,2-trifluoroethoxy)-2-pyridyl]oxy]-3-methyl-N-[4-methyl-1-(2,2,2-trifluoroacetyl)-4-piperidyl]imidazo[1,2-a]pyridine-2-carboxamide]",0.128 µM
16,"Cc1c(C(=O)N[C@H]2CCC(=O)NC2)nc2ccc(Oc3ncccc3OCC(F)(F)F)cn12 [Example 113, 3-methyl-N-[(3S)-6-oxo-3-piperidyl]-6-[[3-(2,2,2-trifluoroethoxy)-2-pyridyl]oxy]imidazo[1,2-a]pyridine-2-carboxamide]",> 9.99 µM
17,"CCOc1cccnc1Oc1ccc2nc(C(=O)NC3(C)CCC(F)(F)CC3)cn2c1 [Example 3, N-(4,4-difluoro-1-methyl-cyclohexyl)-6-[(3-ethoxy-2-pyridyl)oxy]imidazo[1,2-a]pyridine-2-carboxamide]",0.0058 µM
18,"CCc1cc2nc(C(=O)NC3(C)CCS(=O)(=O)CC3)cn2cc1Oc1ncc(Cl)cc1OCC(F)(F)F [Example 59, 6-((5-Chloro-3-(2,2,2-trifluoroethoxy)pyridin-2-yl)oxy)-7-ethyl-N-(4-methyl-1,1-dioxidotetrahydro-2H-thiopyran-4-yl)imidazo[1,2-a]pyridine-2-carboxamide]",0.009 µM
19,"CC(C)c1c(Oc2ncc(Cl)cc2OCC(F)(F)F)ccc2nc(C(=O)NC3(C)CS(=O)(=O)C3)cn12 [Example 55, 6-[[5-chloro-3-(2,2,2-trifluoroethoxy)-2-pyridyl]oxy]-5-isopropyl-N-(3-methyl-1,1-dioxo-thietan-3-yl)imidazo[1,2-a]pyridine-2-carboxamide]",0.089 µM
20,"CC1(NC(=O)c2cn3nc(Oc4ncc(Cl)cc4OCC(F)(F)F)ccc3n2)CS(=O)(=O)C1 [Example 162, 6-[[5-chloro-3-(2,2,2-trifluoroethoxy)-2-pyridyl]oxy]-N-(3-methyl-1,1-dioxo-thietan-3-yl)imidazo[1,2-b]pyridazine-2-carboxamide]",0.474 µM
21,"Cc1c(C(=O)NC2(C)CCC(F)(F)CC2)nc2ccc(Oc3ncccc3OCC(F)F)cn12 [Example 86, 6-[[3-(2,2-difluoroethoxy)-2-pyridyl]oxy]-N-(4,4-difluoro-1-methyl-cyclohexyl)-3-methyl-imidazo[1,2-a]pyridine-2-carboxamide]",0.0068 µM
